From article PMC4634797, “New linear antiplasmodial peptides related to angiotensin II” (Malaria Journal, 2015)
“And” between values parts separate entries of the source, which are not always exact repeats. Equal values may be shown once. Ends that are not written are not given here. Peptide text beside a SMILES is read from it.

Key:
[1] = tested on: non-infected human erythrocytes; format: cell-based
Experimental: The MHC of the peptides were assessed through the measurement of haemoglobin released by non-infected human erythrocytes in the presence of increasing concentrations of the compounds in the same culture conditions of the invasion assay. As described by Jin-Jiang, MHC is the highest peptide concentration that causes no detectable release of haemoglobin.

[2] = tested on: uninfected human erythrocytes; format: cell-based
Experimental: The haemolytic effect of analogs 5 and 6 was determined in uninfected erythrocytes. Cells were maintained in the same culture conditions in the presence of 10^−8 mol L^−1 peptides, for 24 h. Erythrocytes were centrifuged at 900g/8 min and free haemoglobin in the supernatant was assessed by spectrophotometer at 550 nm. Untreated cells were used as negative control to discount non-specific haemolysis. The haemolytic activity was expressed as percentage of the control. This positive control (100 % haemolysis) was prepared by treating the erythrocytes with distilled water.
The effects of the Ang II, peptides 5 and 6 in the erythrocyte human cells to define the haemolysis were seeded in a 96-well plate in the absence (control) or presence of 10^−8 mol L^−1 of the analogues, as already described.
Fig. 5 Haemolytic assay of human red blood cells were treated with distilled water; uninfected erythrocytes were kept in the same conditions used in the invasion assay with a control and each peptides tested (10^−8 mol L^−1), at 37 °C for 24 h. After incubation, the supernatant was collected, clarified at 900 g/8 min and the haemoglobin content was detected in a spectrophotometer at […]. Triple asterisk statistically significant compared with distilled water value p < 0.05.

[3] = tested on: Plasmodium falciparum W2 strain, erythrocytic cycle; details: read-out: IC50, suppression of erythrocytic invasion (rings formed) by P. falciparum; seven concentrations 10^−4 to 10^−14 mol L^−1, 24 h; non-linear regression, GraphPad Prism; n = 2
Source text: The erythrocytic cycle of Plasmodiumfalciparum was maintained in vitro by culturing W2 strains in 1640 medium, supplemented with A-type human blood and serum, as described in Saraiva et al. [6].
Sorbitol solution (5 %) was used to synchronize parasite cultures into the ring stage, according to Lambros and Vanderberg [18]. The resistant ring-forms are subsequently maintained in culture as described above. Erythrocytes infected by parasite mature forms at 2–3 % parasitaemia and 5 % haematocrit were kept in the presence or absence of 10^−8 mol L^−1 synthetic peptides, for 24 h. Invasion is assessed by the appearance of new ring forms. The percentage of invasion was determined by optical microscopy (1000× magnification). It represents the total number of cells infected by rings in 100 erythrocytes in at least ten random microscopic fields. The invasion assay was carried out using two different cell suspension and generated equivalent results
The IC50 values were calculated by using GraphPad Prism Software version 5.00 for Windows (GraphPad, San Diego, California, USA). Parameters: Nonlinear Regression; log (inhibitor) vs. response equation was chosen at least square (ordinary) fit method was applied. […]

[4] = not given; remark: listed apart in the source
[5] = not given; remark: listed apart in the source
[6] = not given; remark: listed apart in the source
[7] = not given; remark: listed apart in the source
[8] = tested on: P. gallinaceum sporozoite; details: cited from earlier work; for biological (antiplasmodial) activity on P. gallinaceum sporozoites: Ala-replacement / deletion analogues and short peptides; for antiplasmodial activity against P. gallinaceum sporozoite: lactam bridged Ang II analogues
Source text: Chamlian et al. studied some lactam bridged Ang II analogues, which presented Asp and Lys insertion in order to restrict the peptide. […] They replaced each amino acid by Ala or deleted the residues of the native Ang II molecule. The biological activities of the analogues […]and […]on the P. gallinaceum sporozoites were equipotent to native Ang II [4], 75 and 79 % of activity, respectively.

[9] = tested on: P. falciparum red blood cells; details: cited from earlier work
Source text: Saraiva et al. described studies that aimed to identify the molecular mechanisms induced by Ang II, which are involved in the modulation of P. falciparum erythrocytic cycle. […] Torres et al. studied the influence of restrict peptides in P. falciparum red blood cells.

[10] = tested on: Plasmodium gallinaceum mature sporozoites; assay: Effect of the peptides on salivary gland-derived Plasmodium gallinaceum sporozoites (membrane permeability, propidium iodide fluorescence); format: cell-based; details: 60 μmol L^−1 peptide in PBS, 37 °C, 1 h, fluorescence microscopy, mean, n = 9
Experimental: Nine-thousand P. gallinaceum mature sporozoites were recovered from the salivary glands of Ae. aegypti and incubated in 50 μL of the PBS solution, with 40 μmol L^−1 digitonin (positive control), 60 μmol L^−1 peptides or negative controls, at 37 °C for 1 h. Cell membrane integrity was then monitored using a Carl Zeiss inverted fluorescence microscope (model Observer Axio Vision A.1) coupled to an image capture Zeiss AxioCam HR digital camera (1300 × 1030 pixels resolution and 8-bit quantization) after addition of 1 μL of the propidium iodide aqueous solution (200 μmol L^−1) in 5 μL of total solution volume. Images were obtained using a 40× objective lens and a green filter effect in red. The spectral range was set with the excitation at 538 nm within the visible spectrum in order to produce orange-red fluorescence centered at 619 nm, which was processed using the Axio 4.7 software.
The effect of the peptides on sporozoites was determined in vitro by fluorescence microscopy after one hour of incubation of the parasites with each peptide in the presence of propidium iodide (see Additional file 1). The results are reported as the per cent of fluorescent sporozoites. The analyses were carried out in triplicate using three different mosquito batches and a total of nine experiments were performed (n = 9). The effects of the peptides on P. gallinaceum sporozoites in vitro assay presented 64–94 % activity.
Fig. 2 Effects of peptides on membrane permeability expressed as the per cent of fluorescent mature sporozoites (mean ± standard deviation, n = 9). […] Positive control group (+): digitonin/PBS; negative control group (−): PBS.
Nine-thousand P. gallinaceum mature sporozoites were recovered from the salivary glands of Ae. aegypti and incubated in 50 µL of the PBS solution, with 40 μmol L^–1 digitonin (positive control), 60 μmol L^–1 peptides or negative controls, at 37 °C for one hour. Cell membrane integrity was then monitored using a Carl Zeiss inverted fluorescence microscope (model Observer Axio Vision A.1) coupled to an image capture Zeiss AxioCam HR digital camera (1,300 x 1,030 pixels resolution and 8-bit quantization) after addition of 1 µL of the propidium iodide aqueous solution (200 µmol L^–1) in 5 μL of total solution volume. Images were obtained using a 40X objective lens and a green filter effect in red. The spectral range was set with the excitation at 538 nm within the visible spectrum in order to produce orange-red fluorescence centered at 619 nm, which was processed using the Axio 4.7 software.

CC[C@H](C)[C@H](NC(=O)[C@H](Cc1ccc(O)cc1)NC(=O)[C@@H](NC(=O)[C@H](CCCNC(=N)N)NC(=O)[C@@H](N)CC(=O)O)C(C)C)C(=O)N[C@@H](Cc1cnc[nH]1)C(=O)N1CCC[C@H]1C(=O)N[C@@H](Cc1ccccc1)C(=O)O [Ang II, angiotensin II]
MHC [1]: 10^−5 M
haemolytic activity (% of distilled water control) [2]: did not present hemolytic effects

N[C@@H](Cc1ccc(O)cc1)C(=O)N[C@@H](Cc1c[nH]cn1)C(=O)N1CCC[C@H]1C(=O)N[C@@H](Cc1ccccc1)C(=O)O [Peptide 5, des-Asp^1,Arg^2,Val^3,Ile^5-AII] (H-YHPF-OH)
secondary conformation parallel: 12.1% and 13.4%
IC50 [3]: 0.89 nM
secondary conformation α-helix [4]: 9.7% (2×) and 9.6%
secondary conformation β-turn [5]: 25.7%
secondary conformation random coil [6]: 40.6% and 44.3% and 40.4%
MHC [1]: 10^−5 M
secondary conformation antiparallel [7]: 12% and 13.9%

CC[C@H](C)[C@H](NC(=O)[C@@H](N)C(C)C)C(=O)N1CCC[C@H]1C(=O)N[C@@H](Cc1ccccc1)C(=O)O [Peptide 6, des-Asp^1,Arg^2,Tyr^4,His^6-AII] (H-VIPF-OH)
secondary conformation parallel: 13%
IC50 [3]: 0.62 nM
secondary conformation α-helix [4]: 9.6% and 9.7% (2×)
secondary conformation β-turn [5]: 21.7%
secondary conformation random coil [6]: 40.4%
MHC [1]: 10^−6 M

Arg-Val-Tyr-Ile-His-Pro-Phe [deletion analogue of Ang II, Ferreira et al]
biological (antiplasmodial) activity on P. gallinaceum sporozoites [8]: about 50%

Asp-Arg-Val-Tyr-Ile-His-Pro [deletion analogue of Ang II, Ferreira et al]
biological (antiplasmodial) activity on P. gallinaceum sporozoites [8]: about 50%

CRDCVYIHPF (cysteine pairing not given here) [restrict peptide of Torres et al]
reduction of the parasitaemia by restrict peptides [9]: active in two different parasite species

DRVYAHPF [Ala-replacement Ang II analogue from earlier work]
biological (antiplasmodial) activity on P. gallinaceum sporozoites [8]: 75%

DRVYDIHKPF (also: sidechain bridge or staple (positions not given here)) [VC-26, lactam bridged Ang II analogue of Chamlian et al]
antiplasmodial activity against P. gallinaceum sporozoite [8]: 73%

DRVYHIPF [Peptide 1, [Ile^6,His^5]-AII]
per cent of fluorescent mature sporozoites (Spz Fluorescence, antiplasmodial activity) [10]: 94%

DRVYIAPF [Ala-replacement Ang II analogue from earlier work]
biological (antiplasmodial) activity on P. gallinaceum sporozoites [8]: 79%

DRVYIDHKPF (also: sidechain bridge or staple (positions not given here)) [VC-12, lactam bridged Ang II analogue of Chamlian et al]
antiplasmodial activity against P. gallinaceum sporozoite [8]: 87%

DRVYPF [Peptide 2, des-Ile^5,His^6-AII]
per cent of fluorescent mature sporozoites (Spz Fluorescence, antiplasmodial activity) [10]: 64%

Ile-His-Pro-Phe [short peptide, Ferreira et al]
biological (antiplasmodial) activity on P. gallinaceum sporozoites [8]: about 80%

RYHIPF [Peptide 4, [Ile^4,His^3]-des-Asp^1,Val^3-AII]
per cent of fluorescent mature sporozoites (Spz Fluorescence, antiplasmodial activity) [10]: 77%

Val-Tyr-Ile-His-Pro [short peptide, Ferreira et al]
biological (antiplasmodial) activity on P. gallinaceum sporozoites [8]: about 80%

Val-Tyr-Ile-His-Pro-Phe (VYIHPF; printed: Val-Tyr-Ile-His-Pro-Phe) [short peptide, Ferreira et al]
biological (antiplasmodial) activity on P. gallinaceum sporozoites [8]: about 80%

[2-Nal^3]- des-Asp^1,Arg^2,Tyr^4,His^6-AII [Peptide 9]
per cent of fluorescent mature sporozoites (Spz Fluorescence, antiplasmodial activity) [10]: 70%

[2-Nal^4]- des-Asp^1,Arg^2,Tyr^4,His^6-AII [Peptide 10]
per cent of fluorescent mature sporozoites (Spz Fluorescence, antiplasmodial activity) [10]: 73%
